Source: patent US10786429B2, “Preservative removal from eye drops” (University of Florida Research Foundation, Inc., priority 2016, dated 2020)
Where a name gives a salt, the structure may show the parent alone. Marks after values point to notes of the source that are not given here.

Tests used:
Format in all cases: physicochemical
[1] = Partition coefficient in HEMA/MAA copolymer gels of various compositions
Description: Gels of […] were synthesized using 2 mL monomer solution, 2.7 mL of water, 10 μL of ethylene glycol dimethacrylate as crosslinker, and 6 mg of Darocur TPO as a photoinitiator. The monomer solution had different fractions of HEMA and MAA (i.e. 60% MAA would be 1.2 mL MAA and 0.8 mL HEMA). Gels were cured under UV light in 100 micron thick molds and subsequently cut into pieces approximately 50 mg in mass. Some gels were loaded with BAK to give a 3× (or 300 ppm) initial concentration and placed into 3 mL solution (either 0.025% Bimatoprost/PBS 1× or 0.2% BAK/PBS). The concentrations in solution were measured using UV-vis spectrophotometry. Upon achieving equilibrium, the gels were placed in 3 mL blank PBS, and release was monitored by UV-vis spectrophotometry. Uptake and release equilibrium concentrations were used to calculate partition coefficients. FIGS. 28 and 29 are plots of the partition coefficient for Bimatoprost and BAK for various gel copolymer compositions.

[2] = Partition coefficient in macroporous pHEMA hydrogel; details: for Partition coefficient: 250 mg gel in 12 mL PBS solution, 15 days, mean ± SD, n=3
Description: As indicated above, the absorption percentage of hydrophilic drug is small, whereas a significant amount of hydrophobic drug is uptake by the macroporous pHEMA gel. The high affinity of hydrophobic drug to the gel can be determined by measuring the partition coefficient of the drug in the gel. To measure the partition coefficient, a piece of macroporous pHEMA gel of 250 mg was soaked in 12 mL of drug or BAK solution. After 15 days of soaking, the concentration of the drug or BAK solution was measured by using UV-Vis spectrophotometry. The drug or BAK concentration after soaking indicated the amount of drug or BAK in reference to the initial concentration is that absorbed into the gel. The partition coefficient of timolol and dorzolamide in macroporous pHEMA gel is roughly 15 times smaller than that of BAK, which is excellent separation efficiency. In contrast, the partition coefficients of latanoprost and BAK are pretty high and the separation efficiency of the gel for this mixture is poor.

[3] = Partition coefficient in pHEMA particles prepared using SR9035 as cross-linker; details: 100 mg particles in 3.5 mL solution, 9 days
Description: The partition coefficients of timolol, CMC and BAK in pHEMA particles prepared using SR9035 as cross-linker was measured. pHEMA particles (100 mg) were soaked in 3.5 mL of timolol, CMC and BAK solution, which concentration was 0.08 mg/mL, 0.5% and 2.4 mg/mL, respectively. After 9 days of soaking, the concentration of the drug or BAK solution was measured by using UV-Vis spectrophotometry. The drug or BAK concentration after soaking indicated the amount of drug or BAK that absorbed into the gel relative to the initial concentration. The partition coefficient of timolol and CMC in pHEMA particles is much smaller than that of BAK, and should have excellent separation efficiency.

[4] = Langmuir adsorption isotherm fit of equilibrium interfacial surface tension of BAK solutions; details: Langmuir model fit
Description: An eye drop bottle's plug (tip) was packed with 0.1 g of p-HEMA particles for Timolol Maleate commercial formulation (Sandoz Inc.) and 0.1 g of p-HEMA/MAA particles for Bimatoprost commercial formation (Allegran Inc.). Approximately 0.5 mL of commercial formulation was dosed from the eye drop bottle for each measurement with 0.5 mL of a filtered formulation withdrawn by a standard 3 mL syringe for pendant drop measurements. A drop shape analysis was conducted by the Tensiometer to extract surface tension data of the filtered formulation. A calibration curve with equilibrium interfacial surface tension data as a function of BAK concentration was used to estimate concentrations and fractional BAK removal from the filtered eye drop formulation. Periodic surface tension measurements of the formulations were done to monitor fractional BAK removal.
The steady state Langmuir adsorption isotherm model and Langmuir surface equation of state were used to fit the equilibrium interfacial surface tension data are given below:
[formula] [formula] Where a least square error minimization protocol was used to fit the experimental equilibrium surface tension values and the calculated estimates using the above model. […] Benzalkonium Chloride Removal from Commercial Bimatoprost Formulation (Allegran Inc.)

[5] = Partition coefficient of BAK in pHEMA particles prepared by heat-initiated polymerization
[6] = Partition and adsorption into pHEMA matrix (general statement)

Partition coefficient [2]	partition coefficient, times smaller than that of BAK [2]	Molecule	partitioning between gel and solution (in words) [1]	Partition coefficient [3]	also measured
		CCNC(=O)CCC/C=C\C[C@@H]1[C@@H](/C=C/[C@@H](O)CCc2ccccc2)[C@H](O)C[C@@H]1O [Bimatoprost]	tends to remain in solution		
33.53 ± 1.31		C[C@@H]1C[C@H]2[C@@H]3CCC4=CC(=O)C=C[C@]4(C)[C@@]3(F)[C@@H](O)C[C@]2(C)[C@@]1(O)C(=O)CO [Dexamethasone, dexamethasone]			
7.59 ± 0.56	roughly 15 times	CCN[C@H]1C[C@H](C)S(=O)(=O)c2sc(S(N)(=O)=O)cc21 [Dorzolamide, dorzolamide hydrochloride]			
90.18		CC(C)OC(=O)CCC/C=C\C[C@@H]1[C@@H](CC[C@@H](O)CCc2ccccc2)[C@H](O)C[C@@H]1O [Latanoprost, latanoprost]			
6.49	roughly 15 times	CC(C)(C)NC[C@H](O)COc1nsnc1N1CCOCC1 [Timolol, timolol maleate]		5.59 ± 0.13^a	
		Benzalkonium Chloride [BAK]	strongly partitions into the gel	~300	maximum surface coverage Γ∞ (fit parameter) [4]: 0.003309 mol/m^2; ratio of kinetic rate constants β/α (fit parameter) [4]: 462.14 m^3/mol; Partition coefficient [5]: 200-250; adsorption time on pHEMA ([6]; compared with transit time): < 3 s; partition coefficient into pHEMA matrix ([6]; depends on BAK concentration and structure of pHEMA matrix): 100-500
